Assay results: ChEMBL document CHEMBL2010722, “Structure-activity relationship study of beta-carboline derivatives as haspin kinase inhibitors” (Bioorg Med Chem Lett, 2012)

Key:
[1] = target: Vascular endothelial growth factor receptor 1 (Homo sapiens) (UniProt P17948); assay: Inhibition of FLT1 at 10 uM
[2] = target: MAP kinase-activated protein kinase 3 (Homo sapiens) (UniProt Q16644); assay: Inhibition of MAPKAPK3 at 10 uM
[3] = target: NUAK family SNF1-like kinase 2 (Homo sapiens) (UniProt Q9H093); assay: Inhibition of NuaK2 at 10 uM
[4] = target: CDK9/cyclin T1 (Homo sapiens) (UniProt O60563+P50750); assay: Inhibition of CDK9-CycT1 at 10 uM; format: protein-complex assay
[5] = target: Ephrin type-B receptor 2 (Homo sapiens) (UniProt P29323); assay: Inhibition of EPHB2 at 10 uM
[6] = target: Protein kinase C epsilon type (Homo sapiens) (UniProt Q02156); assay: Inhibition of PKCepsilon at 10 uM
[7] = target: Misshapen-like kinase 1 (Homo sapiens) (UniProt Q8N4C8); assay: Inhibition of MINK at 10 uM
[8] = target: Sphingosine kinase 2 (Homo sapiens) (UniProt Q9NRA0); assay: Inhibition of SPHK2 at 10 uM
[9] = target: Fibroblast growth factor receptor 2 (Homo sapiens) (UniProt P21802); assay: Inhibition of FGFR2 at 10 uM
[10] = target: Angiopoietin-1 receptor (Homo sapiens) (UniProt Q02763); assay: Inhibition of TIE2 at 10 uM
[11] = target: Proto-oncogene tyrosine-protein kinase Src (Homo sapiens) (UniProt P12931); assay: Inhibition of SRC at 10 uM
[12] = target: Aurora kinase A/Targeting protein for Xklp2 (Homo sapiens) (UniProt O14965+Q9ULW0); assay: Inhibition of AurA-TPX2 at 10 uM; format: protein-complex assay
[13] = target: Ribosomal protein S6 kinase alpha-4 (Homo sapiens) (UniProt O75676); assay: Inhibition of MSK2 N-terminal at 10 uM
[14] = target: Casein kinase II alpha'/ beta (Homo sapiens) (UniProt P67870+P19784); assay: Inhibition of CK2a2/b at 10 uM; format: protein-complex assay
[15] = target: Testis-specific serine/threonine-protein kinase 2 (Homo sapiens) (UniProt Q96PF2); assay: Inhibition of TSSK2 at 10 uM
[16] = target: Casein kinase I isoform delta (Homo sapiens) (UniProt P48730); assay: Inhibition of CK1d at 10 uM
[17] = test system: Fibroblast growth factor receptor 3 (Homo sapiens), P22607 [K650M]; assay: Inhibition of FGFR3 K650M mutant at 10 uM
[18] = target: Serine/threonine-protein kinase TAO2 (Homo sapiens) (UniProt Q9UL54); assay: Inhibition of TAOK2 at 10 uM
[19] = target: Casein kinase I isoform gamma-1 (Homo sapiens) (UniProt Q9HCP0); assay: Inhibition of CK1g1 at 10 uM
[20] = target: Protein kinase C zeta type (Homo sapiens) (UniProt Q05513); assay: Inhibition of PKCzeta at 10 uM
[21] = target: Mitogen-activated protein kinase kinase kinase 4 (Homo sapiens) (UniProt Q9Y6R4); assay: Inhibition of MAP3K4 at 10 uM
[22] = target: Proto-oncogene tyrosine-protein kinase ROS (Homo sapiens) (UniProt P08922); assay: Inhibition of ROS at 10 uM
[23] = target: Tyrosine-protein kinase BTK (Homo sapiens) (UniProt Q06187); assay: Inhibition of BTK at 10 uM
[24] = target: EML4-ALK (Homo sapiens) (UniProt Q9UM73+Q9HC35); assay: Inhibition of EML4-ALK at 10 uM; format: protein assay
[25] = target: Fibroblast growth factor receptor 4 (Homo sapiens) (UniProt P22455); assay: Inhibition of FGFR4 at 10 uM
[26] = test system: Platelet-derived growth factor receptor alpha (Homo sapiens), P16234 [T674I]; assay: Inhibition of PDGFRa T674I mutant at 10 uM
[27] = target: Rho-associated protein kinase 1 (Homo sapiens) (UniProt Q13464); assay: Inhibition of ROCK1 at 10 uM
[28] = target: Protein kinase C eta type (Homo sapiens) (UniProt P24723); assay: Inhibition of PKCh at 10 uM
[29] = target: Tyrosine-protein kinase Lyn (Homo sapiens) (UniProt P07948); assay: Inhibition of LYNb at 10 uM
[30] = target: Serine/threonine-protein kinase Sgk3 (Homo sapiens) (UniProt Q96BR1); assay: Inhibition of SGK3 at 10 uM
[31] = target: Tyrosine-protein kinase ABL2 (Homo sapiens) (UniProt P42684); assay: Inhibition of ARG at 10 uM
[32] = target: LIM domain kinase 1 (Homo sapiens) (UniProt P53667); assay: Inhibition of LIMK1 at 10 uM
[33] = test system: Mast/stem cell growth factor receptor Kit (Homo sapiens), P10721 [V560G]; assay: Inhibition of KIT V560G mutant at 10 uM
[34] = target: MAP/microtubule affinity-regulating kinase 3 (Homo sapiens) (UniProt P27448); assay: Inhibition of MARK3 at 10 uM
[35] = test system: Platelet-derived growth factor receptor alpha (Homo sapiens), P16234 [V561D]; assay: Inhibition of PDGFRa V561D mutant at 10 uM
[36] = target: Bone morphogenetic protein receptor type-1A (Homo sapiens) (UniProt P36894); assay: Inhibition of BMPR1A at 10 uM
[37] = target: [Pyruvate dehydrogenase (acetyl-transferring)] kinase isozyme 4, mitochondrial (Homo sapiens) (UniProt Q16654); assay: Inhibition of PDHK4 at 10 uM
[38] = target: Wee1-like protein kinase (Homo sapiens) (UniProt P30291); assay: Inhibition of WEE1 at 10 uM
[39] = target: Dual specificity protein kinase CLK1 (Homo sapiens) (UniProt P49759); details: 10 uM
[40] = test system: Proto-oncogene tyrosine-protein kinase receptor Ret (Homo sapiens), P07949 [M918T]; assay: Inhibition of RET M918T mutant at 10 uM
[41] = target: Protein kinase C gamma type (Homo sapiens) (UniProt P05129); assay: Inhibition of PKCgamma at 10 uM
[42] = target: Mitogen-activated protein kinase 12 (Homo sapiens) (UniProt P53778); assay: Inhibition of p38gamma at 10 uM
[43] = target: Ephrin type-A receptor 4 (Homo sapiens) (UniProt P54764); assay: Inhibition of EPHA4 at 10 uM
[44] = target: ALK tyrosine kinase receptor (Homo sapiens) (UniProt Q9UM73); assay: Inhibition of ALK at 10 uM
[45] = target: Dual specificity mitogen-activated protein kinase kinase 1 (Homo sapiens) (UniProt Q02750); assay: Inhibition of MAP2K1 at 10 uM
[46] = target: Mitogen-activated protein kinase 14 (Homo sapiens) (UniProt Q16539); assay: Inhibition of p38alpha at 10 uM
[47] = target: Serine/threonine-protein kinase Sgk1 (Homo sapiens) (UniProt O00141); assay: Inhibition of SGK at 10 uM

[Pyruvate dehydrogenase (acetyl-transferring)] kinase isozyme 4, mitochondrial (Homo sapiens), sequence (Q16654 whole entry, looked up): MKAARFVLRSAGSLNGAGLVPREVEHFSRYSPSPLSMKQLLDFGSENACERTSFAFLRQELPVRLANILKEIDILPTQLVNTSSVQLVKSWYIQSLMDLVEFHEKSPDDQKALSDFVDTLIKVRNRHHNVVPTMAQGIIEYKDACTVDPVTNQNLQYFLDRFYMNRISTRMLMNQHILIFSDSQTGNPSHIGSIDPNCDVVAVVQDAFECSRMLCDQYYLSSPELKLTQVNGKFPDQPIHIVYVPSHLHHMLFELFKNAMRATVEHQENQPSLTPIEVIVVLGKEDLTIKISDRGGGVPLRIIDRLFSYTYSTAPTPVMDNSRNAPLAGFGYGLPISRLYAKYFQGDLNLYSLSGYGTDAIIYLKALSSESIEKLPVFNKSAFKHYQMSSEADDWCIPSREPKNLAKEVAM
Tyrosine-protein kinase ABL2 (Homo sapiens), sequence (P42684 whole entry, the tested form may be a part): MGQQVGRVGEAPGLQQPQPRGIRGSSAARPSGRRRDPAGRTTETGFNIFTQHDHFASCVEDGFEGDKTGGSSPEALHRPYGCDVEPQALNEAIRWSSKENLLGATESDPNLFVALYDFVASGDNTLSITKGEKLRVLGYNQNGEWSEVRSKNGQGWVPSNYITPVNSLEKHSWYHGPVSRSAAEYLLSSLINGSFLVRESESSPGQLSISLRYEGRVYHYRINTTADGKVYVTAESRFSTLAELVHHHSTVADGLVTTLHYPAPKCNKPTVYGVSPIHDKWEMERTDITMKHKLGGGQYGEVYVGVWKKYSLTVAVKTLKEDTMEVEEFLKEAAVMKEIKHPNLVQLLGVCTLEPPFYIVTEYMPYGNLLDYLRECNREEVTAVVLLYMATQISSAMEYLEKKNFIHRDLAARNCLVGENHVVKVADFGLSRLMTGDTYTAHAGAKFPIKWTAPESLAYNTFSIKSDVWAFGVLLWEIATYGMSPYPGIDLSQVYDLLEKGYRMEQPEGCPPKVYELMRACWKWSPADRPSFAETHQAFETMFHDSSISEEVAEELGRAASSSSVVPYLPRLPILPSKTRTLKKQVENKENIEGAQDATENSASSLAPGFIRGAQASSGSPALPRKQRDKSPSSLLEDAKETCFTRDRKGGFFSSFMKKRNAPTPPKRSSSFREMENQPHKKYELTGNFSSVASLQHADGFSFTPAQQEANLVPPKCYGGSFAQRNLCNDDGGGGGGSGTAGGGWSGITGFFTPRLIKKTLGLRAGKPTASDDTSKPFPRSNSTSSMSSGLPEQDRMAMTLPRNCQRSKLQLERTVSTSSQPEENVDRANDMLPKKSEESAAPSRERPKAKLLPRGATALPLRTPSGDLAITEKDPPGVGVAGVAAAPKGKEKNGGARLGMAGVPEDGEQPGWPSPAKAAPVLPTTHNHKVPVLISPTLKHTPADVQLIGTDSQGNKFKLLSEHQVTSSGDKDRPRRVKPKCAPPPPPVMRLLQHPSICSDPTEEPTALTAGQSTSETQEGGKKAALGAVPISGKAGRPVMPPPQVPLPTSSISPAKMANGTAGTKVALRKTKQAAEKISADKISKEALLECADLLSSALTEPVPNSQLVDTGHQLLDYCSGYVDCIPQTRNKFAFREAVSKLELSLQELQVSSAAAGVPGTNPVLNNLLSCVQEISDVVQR
Angiopoietin-1 receptor (Homo sapiens), sequence (Q02763 whole entry): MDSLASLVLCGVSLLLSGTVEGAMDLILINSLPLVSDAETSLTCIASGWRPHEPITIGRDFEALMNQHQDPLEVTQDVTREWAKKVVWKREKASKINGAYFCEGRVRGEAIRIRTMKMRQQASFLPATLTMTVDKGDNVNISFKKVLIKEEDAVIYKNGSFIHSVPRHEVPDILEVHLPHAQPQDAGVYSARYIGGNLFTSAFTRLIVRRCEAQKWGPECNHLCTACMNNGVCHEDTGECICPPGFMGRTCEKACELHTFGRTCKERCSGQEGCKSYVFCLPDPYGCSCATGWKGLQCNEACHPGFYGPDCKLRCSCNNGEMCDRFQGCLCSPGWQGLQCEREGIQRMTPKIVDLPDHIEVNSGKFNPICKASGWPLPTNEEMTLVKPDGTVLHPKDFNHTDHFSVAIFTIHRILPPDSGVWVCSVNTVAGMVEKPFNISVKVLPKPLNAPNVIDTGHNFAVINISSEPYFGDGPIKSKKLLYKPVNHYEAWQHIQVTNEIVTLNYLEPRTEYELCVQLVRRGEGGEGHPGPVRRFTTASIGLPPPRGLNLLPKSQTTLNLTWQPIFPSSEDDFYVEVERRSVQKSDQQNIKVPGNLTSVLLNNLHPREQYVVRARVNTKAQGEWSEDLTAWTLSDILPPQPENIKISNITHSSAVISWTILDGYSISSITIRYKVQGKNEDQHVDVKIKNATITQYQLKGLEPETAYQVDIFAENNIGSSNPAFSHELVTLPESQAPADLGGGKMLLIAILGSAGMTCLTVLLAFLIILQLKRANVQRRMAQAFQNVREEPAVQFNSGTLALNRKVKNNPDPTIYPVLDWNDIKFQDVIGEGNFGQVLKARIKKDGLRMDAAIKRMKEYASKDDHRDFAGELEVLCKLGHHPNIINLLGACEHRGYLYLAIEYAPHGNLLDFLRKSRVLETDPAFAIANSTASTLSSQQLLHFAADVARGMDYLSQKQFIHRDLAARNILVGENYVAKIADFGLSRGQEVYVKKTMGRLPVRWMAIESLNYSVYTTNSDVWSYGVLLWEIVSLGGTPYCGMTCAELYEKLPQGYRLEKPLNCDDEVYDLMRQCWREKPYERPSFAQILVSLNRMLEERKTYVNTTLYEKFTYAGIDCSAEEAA
Wee1-like protein kinase (Homo sapiens), sequence (P30291 whole entry, looked up): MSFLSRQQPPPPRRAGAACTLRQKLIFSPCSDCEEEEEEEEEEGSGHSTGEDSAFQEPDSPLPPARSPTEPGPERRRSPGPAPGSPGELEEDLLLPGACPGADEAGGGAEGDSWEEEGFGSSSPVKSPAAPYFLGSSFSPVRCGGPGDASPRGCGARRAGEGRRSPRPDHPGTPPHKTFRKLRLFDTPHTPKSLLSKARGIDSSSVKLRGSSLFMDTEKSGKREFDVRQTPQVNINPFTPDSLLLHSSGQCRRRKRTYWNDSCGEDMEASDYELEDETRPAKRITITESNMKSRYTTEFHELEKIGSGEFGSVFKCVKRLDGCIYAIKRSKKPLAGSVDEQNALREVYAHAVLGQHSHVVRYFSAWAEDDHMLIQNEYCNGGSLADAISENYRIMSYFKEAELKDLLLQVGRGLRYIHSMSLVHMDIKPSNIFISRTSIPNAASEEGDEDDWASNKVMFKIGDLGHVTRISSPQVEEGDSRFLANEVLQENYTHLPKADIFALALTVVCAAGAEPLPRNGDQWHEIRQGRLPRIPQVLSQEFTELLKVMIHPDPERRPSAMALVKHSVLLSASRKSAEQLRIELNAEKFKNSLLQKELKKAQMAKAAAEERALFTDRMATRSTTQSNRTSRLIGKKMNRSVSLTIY
Protein kinase C zeta type (Homo sapiens), sequence (Q05513 whole entry): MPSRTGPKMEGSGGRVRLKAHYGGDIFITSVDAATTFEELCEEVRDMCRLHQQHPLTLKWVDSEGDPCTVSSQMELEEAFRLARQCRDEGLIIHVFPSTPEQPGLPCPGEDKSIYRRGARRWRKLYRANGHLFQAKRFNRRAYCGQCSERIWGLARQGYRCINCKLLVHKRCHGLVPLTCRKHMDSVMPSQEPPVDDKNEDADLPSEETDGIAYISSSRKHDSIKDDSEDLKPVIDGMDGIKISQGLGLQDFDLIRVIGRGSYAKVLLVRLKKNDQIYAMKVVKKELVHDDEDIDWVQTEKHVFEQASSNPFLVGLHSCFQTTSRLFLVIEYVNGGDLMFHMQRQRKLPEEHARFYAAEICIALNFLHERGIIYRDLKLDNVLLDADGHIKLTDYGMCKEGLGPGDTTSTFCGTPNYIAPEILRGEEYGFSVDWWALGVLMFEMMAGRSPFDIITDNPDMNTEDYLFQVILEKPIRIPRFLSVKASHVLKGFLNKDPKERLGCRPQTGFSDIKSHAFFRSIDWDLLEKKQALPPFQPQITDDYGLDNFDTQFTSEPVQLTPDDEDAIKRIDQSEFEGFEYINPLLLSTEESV
Mitogen-activated protein kinase 14 (Homo sapiens), sequence (Q16539 whole entry): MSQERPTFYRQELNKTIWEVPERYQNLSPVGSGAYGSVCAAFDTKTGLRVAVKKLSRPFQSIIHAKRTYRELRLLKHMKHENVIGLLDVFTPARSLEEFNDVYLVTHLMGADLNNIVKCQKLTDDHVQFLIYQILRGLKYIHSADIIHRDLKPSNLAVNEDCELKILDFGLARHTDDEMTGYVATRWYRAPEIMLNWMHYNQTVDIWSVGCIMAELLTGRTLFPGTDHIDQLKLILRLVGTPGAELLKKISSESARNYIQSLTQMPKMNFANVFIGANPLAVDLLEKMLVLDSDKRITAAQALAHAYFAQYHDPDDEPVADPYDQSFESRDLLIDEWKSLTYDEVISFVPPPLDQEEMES

With COc1ccc2c3ccnc(C(F)(F)F)c3n(CCCCN)c2c1 the inhibition [1] was 8%, the inhibition [2] was 1% and the inhibition [3] was 27%. The inhibition [4] was 79%, the inhibition [5] was 0% and the inhibition [6] was 72%. For the same compound, the inhibition [7] was 17%, the inhibition [8] was 6% and the inhibition [9] was 0%. It also gave an inhibition [10] of 0%, an inhibition [11] of 17% and an inhibition [12] of 0%. The inhibition [13] was 16%, the inhibition [14] was 1% and the inhibition [15] was 5%. It also gave an inhibition [16] of 93%, an inhibition [17] of 0% and an inhibition [18] of 4%. It also gave an inhibition [19] of 66%, an inhibition [20] of 35% and an inhibition [21] of 8%. It also gave an inhibition [22] of 44%, an inhibition [23] of 0% and an inhibition [24] of 12%. It also gave an inhibition [25] of 6%, an inhibition [26] of 49% and an inhibition [27] of 84%. It also gave an inhibition [28] of 77%, an inhibition [29] of 0% and an inhibition [30] of 13%. For the same compound, the inhibition [31] was 0%, the inhibition [32] was 8% and the inhibition [33] was 16%. It also gave an inhibition [34] of 47%, an inhibition [35] of 31% and an inhibition [36] of 35%. For the same compound, the inhibition [37] was 34%, the inhibition [38] was 0% and the inhibition [39] was 100%. It also gave an inhibition [40] of 9%, an inhibition [41] of 22% and an inhibition [42] of 66%. For the same compound, the inhibition [43] was 0%, the inhibition [44] was 5% and the inhibition [45] was 16%. It also gave an inhibition [46] of 1% and an inhibition [47] of 34%.
